Key:
PC-3 cells = assay: MTT cell proliferation assay, PC-3; assay type: cell-based, human; conditions: PC-3, 30 µM, 72 h, average ± SD
Method: (§1) Cell lines, namely LNCaP, PC-3, T47-D and NHDF were obtained from American Type Culture Collection (ATCC; Manassas, VA, USA) and cultured in 75 cm^2 culture flasks at 37 °C in a humidified air incubator with 5% CO2. LNCaP, PC-3 and T47-D cells, which were used in passages 20th to 27th, 25th to 29th and 10th to 15th, respectively, were cultured in RPMI 1640 medium (Sigma-Aldrich, Inc., St. Louis, MO, USA) with 10% fetal bovine serum (FBS; Sigma-Aldrich, Inc. St. Louis, MO, USA) and 1% of the antibiotic mixture of 10,000 IU/mL penicillin G and […] of streptomycin (Sp, Sigma-Aldrich, Inc. St. Louis, MO, USA). Finally, NHDF cells (Normal Human Dermal Fibroblasts) were cultured in RPMI 1640 medium supplemented with 10% FBS, 2 mM L-glutamine, 10 mM HEPES, 1 mM sodium pyruvate and 1% of an antibiotic/antimycotic mixture (10,000 U/mL penicillin G, 100 mg/mL streptomycin and 25 µg/mL amphotericin B) (Ab; Sigma-Aldrich, Inc. St. Louis, MO, USA), and these cells were used in passages 10 to 12. For all cell types, the medium was renewed every 2–3 days until cells reach nearly the confluence state. Then, they were detached gently by trypsinization (trypsin-EDTA solution: 0.125 g/L of trypsin and 0.02 g/L of EDTA).
(§2) All the stock solutions were prepared by dissolving compounds in dimethyl sulfoxide (DMSO; Sigma-Aldrich, Inc., St. Louis, MO, USA) at 10 mM and stored at 4 °C. From these solutions, the several diluted compounds solutions in different concentrations were freshly prepared in a complete culture medium before each experiment.
(§3) As previously referred, cells were trypsinized after reaching a near confluence state and counted by the trypan blue exclusion assay in a Neubauer chamber. Then, 100 µL of cell suspension/well with an initial density of 2 × 10^4 cells/mL were seeded in 96-well culture plates (Nunc, Apogent, Denmark) and left to adhere for 48 h. After cells adherence, the medium was replaced by the distinct solutions of the compounds in the study (30 µM for preliminary studies and 0.01, 0.1, 1, 10, 50 and 100 µM for concentration–response studies) in the appropriate medium for approximately 72 h. 5-FU and finasteride were used as positive controls and untreated cells were used as the negative control. Each experiment was performed in quadruplicate and independently performed at least two times. The in vitro antiproliferative effects were evaluated by the MTT assay (Sigma-Aldrich, Inc. St. Louis, USA). After the incubation period, the medium was removed and 100 µL of phosphate buffer saline (NaCl 137 mM, KCl 2.7 mM, Na2HPO4 10 mM and KH2PO4 1.8 mM in deionized water and pH adjusted to 7.4) were used to wash the cells. Then, 100 µL of the MTT solution (5 mg/mL) was prepared in the appropriate serum-free medium and was added to each well, followed by incubation for 4 h at 37 °C. Hereafter, the MTT containing medium was removed and the formazan crystals were dissolved in DMSO. Then the absorbance was measured at 570 nm using a microplate spectrophotometer BIO-RAD xMarkTM. Cell viability values were expressed as percentages relative to the absorbance determined in the cells used as negative controls.
(§4) The data are expressed as a mean ± standard deviation (SD) and differences between groups were considered statistically significant when p < 0.05. The IC50 values were determined through sigmoidal fitting analysis with variable slope and considering a 95% confidence level. All data shown are representative of at least two independent experiments.

[1] = test system: NHDF cells (Normal Human Dermal Fibroblasts); assay: MTT cell proliferation assay, NHDF; assay type: cell-based; conditions: 30 µM, 72 h, average ± SD
Method: as §1, §2, §3, §4

T47-D cells = assay: MTT cell proliferation assay, T47-D; assay type: cell-based, human; conditions: 30 µM, 72 h, average ± SD
Method: as §1, §2, §3, §4

LNCaP cells [2] = assay: MTT cell proliferation assay, LNCaP; assay type: cell-based, human; conditions: 30 µM, 72 h, average ± SD
Method: as §1, §2, §3, §4

LNCaP cells [3] = assay: Microscopic cell morphology observation; assay type: cell-based, human; conditions: 24 and 72 h of treatment
Method: In our previous work, 16E-arylidene-4-azaandrost-5-ene derivatives were synthesized, their antiproliferative effects were evaluated and further studies were performed with the most promising steroid in LNCaP cells. Due to the similarity of 16E-arylidene-4-azaandrostenes and these novel 21E-arylidene-4-azapregnene derivatives, identical studies in this cell line were performed, namely a flow cytometry assay and microscopic cell morphology observation. To assess the viability of LNCaP cells when exposed to steroid 3g, a flow cytometry assay after PI staining was performed. Cells were treated with 3g and 5-FU during 24 and 72 h, and then a microscopic cell observation was performed to assess the possible morphological alterations and cell density changes triggered by incubation with 3g and compare with controls (Figure 6).
Similar to the previous study, the analysis of cell viability was accomplished by flow cytometry after staining dead cells with propidium iodide (PI; Invitrogen, Carlsbad, USA). Succinctly, 1 mL of a cell suspension was seeded in 12-well culture plates (initial cell density of 5 × 10^4 cells/mL of LNCaP cells for 24 h assay and 2 × 10^4 cells/mL of the same cell line for 72 h assay) in a complete culture medium. […] The percentages of each region were calculated for a total of R1 + R2 + R3. […]

**Q.** Which “MTT screening, cell proliferation” value (PC-3 cells) does the source give for `CC(C)(C)NC(=O)[C@H]1CC[C@H]2[C@@H]3CC[C@H]4NC(=O)C=C[C@]4(C)[C@H]3CC[C@]12C` [Finasteride, reference compound] here?
**A.** 78.8 ± 8.7 percentage of negative control

**Q.** And the “MTT screening, cell proliferation” value [1]?
**A.** 62.8 ± 5.9 percentage of negative control

**Q.** What about the “MTT screening, cell proliferation” value (T47-D cells) of the same compound?
**A.** 103.5 ± 17.8 percentage of negative control

**Q.** And the “MTT screening, cell proliferation” value (LNCaP cells [2])?
**A.** 88.5 ± 2.4 percentage of negative control

**Q.** What about the “Cell morphology and cell density” value (LNCaP cells [3]) of the same compound?
**A.** cell density reduction and the preservation of healthy cells morphology

Reference: PMC9501232, “Novel 4-Azapregnene Derivatives as Potential Anticancer Agents: Synthesis, Antiproliferative Activity and Molecular Docking Studies” (Molecules, 2022)
